Measured values as given in ChEMBL document CHEMBL3232946, “Development of 3,5-dinitrobenzoate-based 5-lipoxygenase inhibitors” (Bioorg Med Chem, 2014).

What was measured:
[1] = biological target: T1, Polyunsaturated fatty acid 5-lipoxygenase (Homo sapiens, UniProt P09917); test: Inhibition of 5-LOX in human whole blood assessed as inhibition of A23187-induced LTB4 production preincubated for 15 mins followed by A23187 induction measured after 30 mins by ELISA
T1 sequence (P09917 whole entry): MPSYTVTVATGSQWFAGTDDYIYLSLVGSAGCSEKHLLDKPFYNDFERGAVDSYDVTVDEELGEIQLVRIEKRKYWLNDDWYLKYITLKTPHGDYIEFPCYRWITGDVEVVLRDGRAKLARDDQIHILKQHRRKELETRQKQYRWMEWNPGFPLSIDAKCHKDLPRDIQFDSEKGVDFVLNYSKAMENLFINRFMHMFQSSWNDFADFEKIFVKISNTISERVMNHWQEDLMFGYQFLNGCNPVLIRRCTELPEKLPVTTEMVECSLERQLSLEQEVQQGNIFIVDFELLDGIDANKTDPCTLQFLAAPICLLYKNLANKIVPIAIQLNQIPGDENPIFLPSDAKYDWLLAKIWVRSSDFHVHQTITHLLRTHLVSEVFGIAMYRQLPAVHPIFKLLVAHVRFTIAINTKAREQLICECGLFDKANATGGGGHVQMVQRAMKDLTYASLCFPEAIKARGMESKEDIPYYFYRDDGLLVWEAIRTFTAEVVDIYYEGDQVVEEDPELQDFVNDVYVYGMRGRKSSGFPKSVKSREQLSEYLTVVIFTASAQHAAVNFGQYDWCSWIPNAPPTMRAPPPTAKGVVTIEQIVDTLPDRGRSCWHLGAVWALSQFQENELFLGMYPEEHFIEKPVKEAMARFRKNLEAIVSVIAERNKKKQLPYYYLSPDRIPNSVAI

[2] = biological target: T1, Polyunsaturated fatty acid 5-lipoxygenase; test: Inhibition of human 5-LOX using arachidonic acid as substrate preincubated for 10 mins followed by substrate addition by H2DCFDA staining-based fluorometric analysis

O=C(O)c1cccc(C(=O)Nc2ccccc2)c1
IC50 [1]: > 50 µM
IC50 [2]: > 50000 nM

O=C(Oc1ccccc1)c1cc([N+](=O)[O-])cc([N+](=O)[O-])c1
IC50 [1]: 15.8 µM
IC50 [2]: 1600 nM

O=C(NCc1cccc(Br)c1)c1cc([N+](=O)[O-])cc([N+](=O)[O-])c1
IC50 [1]: 14.4 µM
IC50 [2]: 83600 nM

CCCc1cccc(OC(=O)c2cc([N+](=O)[O-])cc([N+](=O)[O-])c2)c1
IC50 [1]: 6.5 µM
IC50 [2]: 7400 nM

O=C(O)c1cccc(C(=O)Nc2cccc3ccccc23)c1
IC50 [1]: > 50 µM
IC50 [2]: > 50000 nM

O=C(Nc1cccc2ccccc12)c1cc([N+](=O)[O-])cc([N+](=O)[O-])c1
IC50 [1]: > 50 µM
IC50 [2]: 4 nM

O=C(Nc1cccc(Cl)c1)c1cc([N+](=O)[O-])cc([N+](=O)[O-])c1
IC50 [1]: > 50 µM
IC50 [2]: 33 nM

COc1ccc(NC(=O)c2cc([N+](=O)[O-])cc([N+](=O)[O-])c2)cc1
IC50 [1]: 2.7 µM
IC50 [2]: 34 nM

O=C(Nc1cccc(Br)c1)c1cc([N+](=O)[O-])cc([N+](=O)[O-])c1
IC50 [1]: > 50 µM
IC50 [2]: > 50000 nM

O=C(Oc1cccc2ccccc12)c1cccc([N+](=O)[O-])c1
IC50 [1]: 24.6 µM
IC50 [2]: 7100 nM

O=C(O)c1cccc(C(=O)OCc2ccccc2)c1
IC50 [1]: > 50 µM
IC50 [2]: > 50000 nM

Cc1cccc(NC(=O)c2cc([N+](=O)[O-])cc([N+](=O)[O-])c2)c1
IC50 [1]: > 50 µM
IC50 [2]: 10 nM

O=C(Oc1cccc2ccccc12)c1cc([N+](=O)[O-])cc([N+](=O)[O-])c1
IC50 [2]: 1000 nM

O=C(Oc1ccc(-c2ccccc2)cc1)c1cc([N+](=O)[O-])cc([N+](=O)[O-])c1
IC50 [1]: > 50 µM
IC50 [2]: > 50000 nM

O=C(Nc1ccccc1)c1cc([N+](=O)[O-])cc([N+](=O)[O-])c1
IC50 [1]: 15.2 µM
IC50 [2]: 1800 nM

O=C(O)c1cccc(C(=O)Oc2cccc3ccccc23)c1
IC50 [1]: > 50 µM
IC50 [2]: > 50000 nM

O=C(Oc1cccc(-c2ccccc2)c1)c1cc([N+](=O)[O-])cc([N+](=O)[O-])c1
IC50 [1]: 38 µM
IC50 [2]: 8700 nM

O=C(Oc1cccc(Cl)c1Cl)c1cc([N+](=O)[O-])cc([N+](=O)[O-])c1
IC50 [1]: > 50 µM
IC50 [2]: > 50000 nM

COc1ccc(NC(=O)c2cc([N+](=O)[O-])cc([N+](=O)[O-])c2)cc1OC
IC50 [1]: > 50 µM
IC50 [2]: 1100 nM

Cc1cccc(OC(=O)c2cc([N+](=O)[O-])cc([N+](=O)[O-])c2)c1
IC50 [1]: 0.5 µM
IC50 [2]: 6 nM

O=C(Nc1cccc(-c2ccccc2)c1)c1cc([N+](=O)[O-])cc([N+](=O)[O-])c1
IC50 [1]: > 50 µM
IC50 [2]: 30 nM
